Source: patent US7595327B2, “Beta-sulfonamide hydroxamic acid inhibitors of tace/matrix metalloproteinase” (priority 2005, dated 2009)
Where two headings read alike, the source gives them in different places.

Columns and labels:
[1] = system: TNF-α secretion in Raw 264.7 cells; assay: Cell-based assay for inhibition of TNF-α secretion in Raw cells; details: Mus musculus, RAW264.7, LPS 100 ng/ml, 4 hr
Procedure: The basic measurement of the assay is the percentage of inhibition of TNF-α secretion and the IC50 determination by a fitting with the model-39 of LSW data analysis tool. […] Cells are split twice a week by scraping and 1 to 10 or 20 dilutions. For testing compounds, cells are cultured to confluence and are seeded the day before the experiment in 24 well culture dishes at 0.5 to 1 million/ml well. On the next morning, the medium from the overnight culture is replaced with the fresh growth medium. The compounds are added at various concentration at the 0.2% of final DMSO concentrations (10 μl of a 20% DMSO solution containing testing compounds is added to each well). The cells are pre-incubated with compounds for 1 hr. LPS (Sigma, L2262) is added to cells at a final concentration of 100 ng/ml (10 μl of a […] LPS solution freshly diluted from a 1 mg/ml LPS stock solution in PBS is added to each well) and cells are further incubated for 4 hr at 37° C. 1 ml of the supernatant was collected, cells are spun down and the supernatants are frozen at −80° C. until use. The TNF-α and other proinflammatory cytokines were detected by an ELISA assay according to the manufacturer's instructions (Biosource International, Inc., Camarillo, Calif. (For IL-1b measurement in Raw cells, one round of freeze and thaw of the cells was required).

[2] = target: T1, TACE (catalytic domain of the recombinant TACE protein) (Homo sapiens, UniProt P78536); assay: TACE FRET assay using TACE Cat; assay type: biochemical; details: pro-TNF-α substrate peptide
T1 construct: The catalytic domain of the recombinant TACE protein was expressed and purified; made in house
Procedure: The procedure is essentially as described in Jin, G. et al., Analytical Biochemistry (2002) 302, 269-275, incorporated by reference herein in its entirety. […] K is the IC50. Generally, n and B are floated, noting that n (hill slope) should be close to 1 and B (background offset) to 0.
Pro-TNF-α substrate peptide Abz-[…]-Dpa (AnaSpec, San Jose, Calif., WARC-1) was prepared as a 2 mM stock solution in the TACE assay buffer (50 mM Tris-HCI, pH 7.4, 25 mM NaCl, 4% Glycerol, 0.005% Brij 35). The catalytic domain of the recombinant TACE protein was expressed and purified. The TACE protein (1 ug/ml) was pretreated with the inhibitors at various concentrations for 10 min at room temperature. The reaction was initiated by the addition of the substrate peptide. The increase in fluorescence was monitored at an Excitation of 320 nm and an Emission of 420 nm over a period of 10 min. The initial rate (slope) of the reaction was determined using a fluorescence plate reader (Molecular Devices, Spectra Max Gemini XS).

recombinant human MMP-2 = target: T2, recombinant human MMP-2 (Homo sapiens, UniProt P08253); assay: In-vitro fluorescence assay of MMP-2 activity; assay type: biochemical
T2 sequence (P08253 110-660): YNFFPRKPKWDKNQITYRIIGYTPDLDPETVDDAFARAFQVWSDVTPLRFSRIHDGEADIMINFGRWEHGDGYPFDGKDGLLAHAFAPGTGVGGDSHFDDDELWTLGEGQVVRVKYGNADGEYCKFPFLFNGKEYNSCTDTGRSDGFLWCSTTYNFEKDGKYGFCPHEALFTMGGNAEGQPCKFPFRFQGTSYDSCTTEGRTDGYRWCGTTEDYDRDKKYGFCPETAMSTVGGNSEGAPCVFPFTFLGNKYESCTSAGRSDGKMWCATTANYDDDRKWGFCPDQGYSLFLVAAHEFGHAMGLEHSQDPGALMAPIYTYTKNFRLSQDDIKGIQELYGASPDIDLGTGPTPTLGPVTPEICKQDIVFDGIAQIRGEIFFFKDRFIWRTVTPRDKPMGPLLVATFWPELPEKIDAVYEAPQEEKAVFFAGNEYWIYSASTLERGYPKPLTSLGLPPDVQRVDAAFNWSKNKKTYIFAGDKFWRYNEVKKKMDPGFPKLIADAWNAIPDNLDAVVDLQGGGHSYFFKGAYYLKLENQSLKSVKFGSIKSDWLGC
Procedure: A continuous assay was used in which the substrate is a synthetic peptide containing a fluorescent group (7-methoxycoumarin; Mca) that is quenched by energy transfer to a 2,4-dinitrophenyl group. […] The substrate used was Mca-PQGL-(3-[2,4-dinitrophenyl]-L-2,3-diaminopropionyl)-AR-OH (denoted as Wammp-5, custom synthesized by AnaSpec, Inc.). The assay buffer consisted of 50 mM Hepes (pH 7.4), 100 mM NaCl, 5 mM CaCI2, and 0.005% Brij-35. Each well of black polystyrene 96-well plates contained a 200 μL reaction mixture consisting of assay buffer, purified MMP (final concentration of 25 ng/ml, prepared by diluting with the assay buffer), and varied concentrations of inhibitor (prepared by serially diluting a given inhibitor in DMSO in 96-well polypropylene plate). […] The enzymatic reactions were initiated by adding the substrate to a final concentration of 20 μM, and mixing 10 times with a pipette. The final DMSO concentration in the assay was 6.0%.
Plots of the inhibitor concentration vs. the percent inhibition were fit to the following equation: y=(a−d)/[1+(x/c)^b]+d, a general sigmoidal curve with Hill slope, a to d. x is the inhibitor concentration under test. y is the percent inhibition. a is the limiting response as x approaches zero. As x increases without bound, y tends toward its limit d. c is the inflection point (IC50) for the curve. That is, y is halfway between the lower and upper asymptotes when x=c. b is the slope factor or Hill coefficient.

MMP-13 = MMP-13 (Homo sapiens, UniProt P45452); assay: In-vitro fluorescence assay of MMP-13 activity; assay type: biochemical
Procedure: See Knight, C. […] […].
The method was essentially the same as for the determination of MMP-1 activity, described above, except that the final concentration of purified MMP in the assay was 0.5 nM, prepared by diluting with the assay buffer.

[3] = system: LPS-induced TNF-α secretion in human whole blood; assay: Human whole blood assay for LPS-induced TNF-α secretion; assay type: cell-based; details: Homo sapiens, LPS 100 ng/ml, read-out: TNF Secretion HWB IC50
Procedure: procedure is essentially as described in Newton, R. C., et al., (2001) Ann Rheum […]32, incorporated by reference herein in its entirety. The basic measurement of the assay is the percentage of inhibition of TNF-α secretion and the IC50 determination by a […] model-39 of LSW data analysis tool. 350 μl of fresh human blood drawn from healthy volunteers were pre-incubated with compounds for one hour at the various concentrations at 37° C. with turning generally, the final DMSO concentrations should be kept below 0.2%. At the end of cubation, LPS (Sigma, L2262) was added to the blood at 100 ng/ml and the samples were further incubated for 4 hours or overnight at 37° C. with constant rotation. At the end of the incubation period, 650 μl of serum-free medium was added to the blood samples and the samples were centrifuged at 1500 rpm for 15 minutes. 500 μl of supernate was collected and frozen at -80° C. The TNF-α and other proinflammatory cytokines were detected by ELISA assay according to the manufacturer's instruction (Biosource International, Inc., Camarillo, Calif.).

T1 sequence (P78536 223-474 limits assumed): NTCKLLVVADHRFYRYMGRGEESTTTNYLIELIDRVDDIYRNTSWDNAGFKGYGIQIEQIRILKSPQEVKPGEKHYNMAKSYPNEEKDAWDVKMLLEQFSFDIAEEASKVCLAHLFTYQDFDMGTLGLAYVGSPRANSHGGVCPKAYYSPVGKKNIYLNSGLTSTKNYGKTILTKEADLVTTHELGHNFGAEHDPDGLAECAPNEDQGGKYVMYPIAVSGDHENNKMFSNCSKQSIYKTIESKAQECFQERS

| Structure (SMILES) | IC50 [1] | IC50 ([2]; FRET, read-out: TACE IC50) | IC50 (recombinant human MMP-2) | IC50 (MMP-13) | IC50 [3] | IC50 ([2]; TACE IC50, FRET) |
| --- | --- | --- | --- | --- | --- | --- |
| Cc1cc(COc2ccc(S(=O)(=O)N[C@]3(C)CCCC[C@@H]3C(=O)NO)cc2)c2ccccc2n1 (racemic) [Example 60, (1S,2R)-N-hydroxy-2-methyl-2-[({4-[(2-methylquinolin-4-yl)methoxy]phenyl}sulfonyl)amino]cyclohexanecarboxamide (racemic)] | 0.025 µM | < 0.0006 µM | > 16.7 µM | > 16.7 µM | 4.9 µM |  |
| Cc1cc(COc2ccc(S(=O)(=O)N[C@@H]3CC=CC[C@@H]3C(=O)NO)cc2)c2ccccc2n1 (relative stereo) [Example 10, cis-N-hydroxy-6-[({4-[(2-methylquinolin-4-yl)methoxy]phenyl}sulfonyl)amino]cyclohex-3-ene-1-carboxamide] |  | 0.0011 µM | > 16.7 µM | > 16.7 µM | 4.2 µM |  |
| Cc1cc(COc2ccc(S(=O)(=O)NC3C(C(=O)NO)C4CCC3N4C(=O)OC(C)(C)C)cc2)c2ccccc2n1 (centres unmarked) [Example 37, tert-Butyl 2-[(hydroxyamino)carbonyl]-3-[({4-[(2-methylquinolin-4-yl)methoxy]phenyl}sulfonyl)amino]-7-azabicyclo[2.2.1]heptane-7-carboxylate] |  |  | > 16.7 µM | > 16.7 µM | 59 µM | 0.01 µM |
| Cc1cc(COc2ccc(S(=O)(=O)N(C)[C@H]3CCCC[C@@H]3C(=O)NO)cc2)c2ccccc2n1 (relative stereo) [Example 61, trans-N-hydroxy-2-[methyl({4-[(2-methylquinolin-4-yl)methoxy]phenyl}sulfonyl)amino]cyclohexanecarboxamide] | 0.911 µM |  | > 16.7 µM | > 16.7 µM | 43 µM |  |
| CN(C1C2CCC(C2)C1C(=O)NO)S(=O)(=O)c1ccc(OCc2ccc3nonc3c2)cc1 (stereo in doubt) [Example 40, (1R,2S,3R,4S)-3-[{[4-(2,1,3-benzoxadiazol-5-ylmethoxy)phenyl]sulfonyl}(methyl)amino]-N-hydroxybicyclo[2.2.1]heptane-2-carboxamide] |  | 0.056 µM |  |  |  |  |
| CN(C1C2CCC(C2)C1C(=O)NO)S(=O)(=O)c1ccc(OCc2ccc3ccccc3c2)cc1 (stereo in doubt) [Example 39, (1R,2S,3R,4S)-N-hydroxy-3-(methyl{[4-(2-naphthylmethoxy)phenyl]sulfonyl}amino)bicyclo[2.2.1]heptane-2-carboxamide] |  | 0.172 µM |  |  |  |  |
| Cc1cc(COc2ccc(S(=O)(=O)N(C)[C@H]3[C@@H](C(=O)NO)[C@H]4C=C[C@@H]3C4)cc2)c2ccccc2n1 (relative stereo) [Example 8, endo-N-Hydroxy-3-[methyl({4-[(2-methylquinolin-4-yl)methoxy]phenyl}sulfonyl)amino]bicyclo[2.2.1]hept-5-ene-2-carboxamide] |  | 0.0015 µM | > 16.7 µM | > 16.7 µM | > 50 µM |  |
| Cc1cc(COc2ccc(S(=O)(=O)N[C@@H]3[C@@H]4CC[C@@H](C4)[C@@H]3C(=O)NO)cc2)c2ccccc2n1 (relative stereo) [Example 6, endo-N-Hydroxy-3-[({4-[(2-methylquinolin-4-yl)methoxy]phenyl}sulfonyl)amino]bicyclo[2.2.1]heptane-2-carboxamide] |  | 0.001 µM | > 16.7 µM | > 16.7 µM | 47 µM |  |
| Cc1cc(COc2ccc(S(=O)(=O)N[C@H]3[C@@H](C(=O)NO)[C@@H]4C=C[C@H]3C4)cc2)c2ccccc2n1 (relative stereo) [Example 9, exo-N-Hydroxy-3-[({4-[(2-methylquinolin-4-yl)methoxy]phenyl}sulfonyl)amino]bicyclo[2.2.1] hept-5-ene-2-carboxamide] |  | 0.0001 µM | > 16.7 µM | > 16.7 µM | 9.3 µM |  |
| Cc1cc(COc2ccc(S(=O)(=O)NC3C4CCC(N4)C3C(=O)NO)cc2)c2ccccc2n1 (centres unmarked) [Example 38, 3-[4-(2-Methyl-quinolin-4-ylmethoxy)-benzenesulfonylamino]-7-aza-bicyclo[2.2.1]heptane-2-carboxylic acid hydroxyamide] |  |  | 8.68 µM | > 16.7 µM | 26 µM | 0.051 µM |
| Cc1cc(COc2ccc(S(=O)(=O)N[C@H]3[C@@H](C(=O)NO)[C@@H]4CC[C@H]3O4)cc2)c2ccccc2n1 (relative stereo) [Example 2, exo-N-Hydroxy-3-[({4-[(2-methylquinolin-4-yl)methoxy]phenyl}sulfonyl)amino]-7-oxabicyclo[2.2.1]heptane-2-carboxamide] |  | 0.0022 µM | > 16.7 µM | > 16.7 µM | 9.9 µM |  |
| Cc1cc(COc2ccc(S(=O)(=O)N[C@@H]3CCC[C@]3(CO)C(=O)NO)cc2)c2ccccc2n1 [Example 58] | 0.44 µM |  |  |  | 14 µM |  |
| Cc1cc(COc2ccc(S(=O)(=O)N[C@@H]3CNC[C@@H]3C(=O)NO)cc2)c2ccccc2n1 (relative stereo) [Example 22, cis-N-Hydroxy4-[({4-[(2-methylquinolin-4-yl)methoxy]phenyl}sulfonyl)amino]pyrrolidine-3-carboxamide] | 0.09 µM |  | > 16.7 µM | > 16.7 µM | 0.27 µM |  |
| Cc1cc(COc2ccc(S(=O)(=O)N[C@H]3[C@@H](C(=O)NO)[C@H]4C=C[C@@H]3C4)cc2)c2ccccc2n1 (relative stereo) [Example 7, endo-N-Hydroxy-3-[({4-[(2-methylquinolin-4-yl)methoxy]phenyl}sulfonyl)amino]bicyclo[2.2.1]hept-5-ene-2-carboxamide] |  | 0.0012 µM | > 16.7 µM | > 16.7 µM | 34 µM |  |
| Cc1cc(COc2ccc(S(=O)(=O)N[C@@H]3CCCC[C@@H]3C(=O)NO)cc2)c2ccccc2n1 (relative stereo) [Example 12, cis-N-hydroxy-2-[({4-[(2-methylquinolin-4-yl)methoxy]phenyl}sulfonyl)amino]cyclohexanecarboxamide] | 0.08 µM |  | > 16.7 µM | > 16.7 µM | 2.2 µM |  |
